Test results as given in ChEMBL document CHEMBL1125586, “Novel thiophene-, pyrrole-, furan-, and benzenecarboxamidotetrazoles as potential antiallergy agents” (J Med Chem, 1991).
In brackets after ≈: the same amount, converted by molar mass.

Test system: not listed separately
Assay: physchem
Conditions: buffer, pH 7.4
Description: Log P value was determined at pH 7.4 using correlation (HPLC) method.

For `COc1ccc2sc(C(=O)Nc3nnn[nH]3)c(OC(C)C)c2c1`, which chromatographic logD is on record?
The chromatographic logD was 1.78.

For `COc1sc(C(=O)Nc2nn[nH]n2)c(OC(C)C)c1Br`, which chromatographic logD is on record?
The chromatographic logD was 1.35.

Which chromatographic logD does the source give for `CC(C)Oc1c(Br)c(Br)n(C)c1C(=O)Nc1nn[nH]n1` here?
The chromatographic logD was 2.52.

Which chromatographic logD does the source give for `Cc1sc(C(=O)Nc2nn[nH]n2)c(OC(C)C)c1Br` here?
The chromatographic logD was 1.72.

For `COc1ccc2c(c1)c(OC(C)C)c(C(=O)Nc1nn[nH]n1)n2-c1ccccc1`, which chromatographic logD is on record?
The chromatographic logD was 2.66.

With `COc1ccc2c(c1)c1oc(C(=O)Nc3nn[nH]n3)c(OC)c1n2-c1ccccc1` as the molecule, how does the chromatographic logD read?
The chromatographic logD was 2.8.

With `COc1ccc(C(=O)Nc2nn[nH]n2)c(OC(C)C)c1I` as the molecule, how does the chromatographic logD read?
Its chromatographic logD is 1.17.

Species: Homo sapiens
Assay: cells
Conditions: not given

For `COc1ccc2sc(C(=O)Nc3nnn[nH]3)c(OC(C)C)c2c1`, which inhibition at 33 µM is on record?
The inhibition at 33 µM was 97%.

With `COc1sc(C(=O)Nc2nn[nH]n2)c(OC(C)C)c1Br` as the molecule, how does the inhibition at 33 µM read?
Its inhibition at 33 µM is 95%.

For `Cc1sc(C(=O)Nc2nn[nH]n2)c(SC(C)C)c1Br`, which inhibition at 33 µM is on record?
Its inhibition at 33 µM is 90%.

For `CCOc1c(C(=O)Nc2nn[nH]n2)sc(C)c1Br`, which inhibition at 33 µM is on record?
The inhibition at 33 µM was 100%.

With `CC(C)Oc1c(C(=O)Nc2nn[nH]n2)sc(C(C)C)c1Br` as the molecule, how does the inhibition at 33 µM read?
Its inhibition at 33 µM is under 25%.

With `CC(C)Oc1c(Br)c(Br)n(C)c1C(=O)Nc1nn[nH]n1` as the molecule, how does the inhibition at 33 µM read?
The inhibition at 33 µM was 69%.

Which inhibition at 33 µM does the source give for `Cc1sc(C(=O)Nc2nn[nH]n2)c(OC(C)C)c1Cl` here?
The inhibition at 33 µM was 88%.

For `Cc1sc(C(=O)Nc2nn[nH]n2)c(OC(C)C)c1Br`, which inhibition at 33 µM is on record?
The inhibition at 33 µM was 97%.

For `Cc1sc(C(=O)Nc2nn[nH]n2)c(OCc2ccccc2)c1Br`, which inhibition at 33 µM is on record?
Its inhibition at 33 µM is 91%.

Which inhibition at 33 µM does the source give for `COc1ccc2c(c1)c(OC(C)C)c(C(=O)Nc1nn[nH]n1)n2-c1ccccc1` here?
The inhibition at 33 µM was 82%.

With `COc1ccc2c(c1)c1oc(C(=O)Nc3nn[nH]n3)c(OC)c1n2-c1ccccc1` as the molecule, how does the inhibition at 33 µM read?
Its inhibition at 33 µM is 91%.

Which inhibition at 33 µM does the source give for `COc1c(Br)cc(C(=O)Nc2nn[nH]n2)c(OC(C)C)c1Br` here?
The inhibition at 33 µM was 28%.

For `CC(C)Oc1c(Br)c(Br)n(Cc2ccccc2)c1C(=O)Nc1nn[nH]n1`, which inhibition at 33 µM is on record?
Its inhibition at 33 µM is under 25%.

For `CC(C)Oc1c(C(=O)Nc2nn[nH]n2)[nH]c(Br)c1Br`, which inhibition at 33 µM is on record?
The inhibition at 33 µM was under 25%.

With `CC(C)Oc1c(Br)c(Br)n(-c2ccccc2)c1C(=O)Nc1nn[nH]n1` as the molecule, how does the inhibition at 33 µM read?
The inhibition at 33 µM was under 25%.

With `Cc1cc(OC(C)C)c(C(=O)Nc2nn[nH]n2)s1` as the molecule, how does the inhibition at 33 µM read?
Its inhibition at 33 µM is under 25%.

Which inhibition at 33 µM does the source give for `Cc1sc(C(=O)Nc2nn[nH]n2)c(OC(C)C)c1OC(C)C` here?
The inhibition at 33 µM was under 25%.

Which inhibition at 33 µM does the source give for `COc1ccc(C(=O)Nc2nn[nH]n2)c(OC(C)C)c1[Si](C)(C)C` here?
Its inhibition at 33 µM is under 25%.

Which inhibition at 33 µM does the source give for `COc1ccc(C(=O)Nc2nn[nH]n2)c(OC(C)C)c1Br` here?
The inhibition at 33 µM was 60%.

With `CC(C)Oc1c(Br)csc1C(=O)Nc1nn[nH]n1` as the molecule, how does the inhibition at 33 µM read?
The inhibition at 33 µM was 47%.

Which inhibition at 33 µM does the source give for `CC(C)Oc1c(C(=O)Nc2nn[nH]n2)sc(-c2ccccc2)c1Br` here?
The inhibition at 33 µM was under 25%.

Which inhibition at 33 µM does the source give for `COc1ccc(C(=O)Nc2nn[nH]n2)c(OC(C)C)c1` here?
Its inhibition at 33 µM is 41%.

With `CC(C)Sc1c(C(=O)Nc2nn[nH]n2)oc(Br)c1Br` as the molecule, how does the inhibition at 33 µM read?
The inhibition at 33 µM was under 25%.

For `COc1ccc(C(=O)Nc2nn[nH]n2)c(OC(C)C)c1I`, which inhibition at 33 µM is on record?
The inhibition at 33 µM was 73%.

With `Cc1sc(C(=O)Nc2nn[nH]n2)c(OC(C)C)c1C` as the molecule, how does the inhibition at 33 µM read?
Its inhibition at 33 µM is under 25%.

With `Cc1sc(C(=O)Nc2nn[nH]n2)c(OC(C)C)c1C(C)C` as the molecule, how does the inhibition at 33 µM read?
The inhibition at 33 µM was under 25%.

With `COc1c(C(=O)Nc2nn[nH]n2)sc(C)c1Br` as the molecule, how does the inhibition at 33 µM read?
Its inhibition at 33 µM is 53%.

Which inhibition at 33 µM does the source give for `CCCc1c2oc(C(=O)O)cc(=O)c2cc2c(=O)cc(C(=O)O)n(CC)c12` [NEDOCROMIL] here?
Its inhibition at 33 µM is under 25%.

Species: Homo sapiens
Assay: cells
Conditions: not given
Remark: another data set of the same source

Which IC50 does the source give for `COc1ccc2sc(C(=O)Nc3nnn[nH]3)c(OC(C)C)c2c1` here?
The IC50 was 1.1 µM.

For `COc1sc(C(=O)Nc2nn[nH]n2)c(OC(C)C)c1Br`, which IC50 is on record?
Its IC50 is 2 µM.

With `Cc1sc(C(=O)Nc2nn[nH]n2)c(SC(C)C)c1Br` as the molecule, how does the IC50 read?
Its IC50 is 5 µM.

For `CCOc1c(C(=O)Nc2nn[nH]n2)sc(C)c1Br`, which IC50 is on record?
Its IC50 is 5 µM.

For `CC(C)Oc1c(Br)c(Br)n(C)c1C(=O)Nc1nn[nH]n1`, which IC50 is on record?
Its IC50 is 25 µM.

Which IC50 does the source give for `Cc1sc(C(=O)Nc2nn[nH]n2)c(OC(C)C)c1Cl` here?
Its IC50 is 8 µM.

Which IC50 does the source give for `Cc1sc(C(=O)Nc2nn[nH]n2)c(OC(C)C)c1Br` here?
The IC50 was 2 µM.

Which IC50 does the source give for `Cc1sc(C(=O)Nc2nn[nH]n2)c(OCc2ccccc2)c1Br` here?
Its IC50 is 5 µM.

Which IC50 does the source give for `COc1ccc2c(c1)c1oc(C(=O)Nc3nn[nH]n3)c(OC)c1n2-c1ccccc1` here?
Its IC50 is 8.5 µM.

With `COc1ccc(C(=O)Nc2nn[nH]n2)c(OC(C)C)c1I` as the molecule, how does the IC50 read?
The IC50 was 10 µM.

Test system: not listed separately
Assay: physchem
Conditions: buffer, pH 7.4
Remark: another data set of the same source
Description: Solubility was determined at pH 7.4

For `COc1ccc2sc(C(=O)Nc3nnn[nH]3)c(OC(C)C)c2c1`, which solubility is on record?
The solubility was 1840 µg/mL (≈ 5.52 mM).

For `COc1sc(C(=O)Nc2nn[nH]n2)c(OC(C)C)c1Br`, which solubility is on record?
The solubility was 1900 µg/mL (≈ 5.25 mM).

Which solubility does the source give for `CC(C)Oc1c(Br)c(Br)n(C)c1C(=O)Nc1nn[nH]n1` here?
The solubility was 1900 µg/mL (≈ 4.66 mM).

For `Cc1sc(C(=O)Nc2nn[nH]n2)c(OC(C)C)c1Br`, which solubility is on record?
Its solubility is 3300 µg/mL (≈ 9.53 mM).

With `COc1ccc2c(c1)c(OC(C)C)c(C(=O)Nc1nn[nH]n1)n2-c1ccccc1` as the molecule, how does the solubility read?
The solubility was 70 µg/mL (≈ 0.178 mM).

With `COc1ccc2c(c1)c1oc(C(=O)Nc3nn[nH]n3)c(OC)c1n2-c1ccccc1` as the molecule, how does the solubility read?
Its solubility is under 1 µg/mL.

Species: Homo sapiens
Assay: cells
Conditions: not given
Remark: another data set of the same source

For `COc1ccc2sc(C(=O)Nc3nnn[nH]3)c(OC(C)C)c2c1`, which inhibition at 10 µM is on record?
Its inhibition at 10 µM is 95%.

With `COc1sc(C(=O)Nc2nn[nH]n2)c(OC(C)C)c1Br` as the molecule, how does the inhibition at 10 µM read?
Its inhibition at 10 µM is 92%.

With `Cc1sc(C(=O)Nc2nn[nH]n2)c(SC(C)C)c1Br` as the molecule, how does the inhibition at 10 µM read?
The inhibition at 10 µM was 74%.

Which inhibition at 10 µM does the source give for `CCOc1c(C(=O)Nc2nn[nH]n2)sc(C)c1Br` here?
The inhibition at 10 µM was 77%.

For `CC(C)Oc1c(C(=O)Nc2nn[nH]n2)sc(C(C)C)c1Br`, which inhibition at 10 µM is on record?
The inhibition at 10 µM was under 25%.

With `CC(C)Oc1c(Br)c(Br)n(C)c1C(=O)Nc1nn[nH]n1` as the molecule, how does the inhibition at 10 µM read?
The inhibition at 10 µM was 37%.

With `Cc1sc(C(=O)Nc2nn[nH]n2)c(OC(C)C)c1Cl` as the molecule, how does the inhibition at 10 µM read?
Its inhibition at 10 µM is 55%.

For `Cc1sc(C(=O)Nc2nn[nH]n2)c(OC(C)C)c1Br`, which inhibition at 10 µM is on record?
The inhibition at 10 µM was 85%.

With `Cc1sc(C(=O)Nc2nn[nH]n2)c(OCc2ccccc2)c1Br` as the molecule, how does the inhibition at 10 µM read?
Its inhibition at 10 µM is 68%.

With `COc1ccc2c(c1)c(OC(C)C)c(C(=O)Nc1nn[nH]n1)n2-c1ccccc1` as the molecule, how does the inhibition at 10 µM read?
Its inhibition at 10 µM is 46%.

With `COc1ccc2c(c1)c1oc(C(=O)Nc3nn[nH]n3)c(OC)c1n2-c1ccccc1` as the molecule, how does the inhibition at 10 µM read?
The inhibition at 10 µM was 66%.

With `COc1c(Br)cc(C(=O)Nc2nn[nH]n2)c(OC(C)C)c1Br` as the molecule, how does the inhibition at 10 µM read?
The inhibition at 10 µM was under 25%.

For `CC(C)Oc1c(Br)c(Br)n(Cc2ccccc2)c1C(=O)Nc1nn[nH]n1`, which inhibition at 10 µM is on record?
The inhibition at 10 µM was under 25%.

For `CC(C)Oc1c(C(=O)Nc2nn[nH]n2)[nH]c(Br)c1Br`, which inhibition at 10 µM is on record?
The inhibition at 10 µM was under 25%.

Which inhibition at 10 µM does the source give for `CC(C)Oc1c(Br)c(Br)n(-c2ccccc2)c1C(=O)Nc1nn[nH]n1` here?
The inhibition at 10 µM was under 25%.

For `Cc1cc(OC(C)C)c(C(=O)Nc2nn[nH]n2)s1`, which inhibition at 10 µM is on record?
Its inhibition at 10 µM is under 25%.

Which inhibition at 10 µM does the source give for `Cc1sc(C(=O)Nc2nn[nH]n2)c(OC(C)C)c1OC(C)C` here?
The inhibition at 10 µM was under 25%.

Which inhibition at 10 µM does the source give for `COc1ccc(C(=O)Nc2nn[nH]n2)c(OC(C)C)c1[Si](C)(C)C` here?
The inhibition at 10 µM was under 25%.

With `COc1ccc(C(=O)Nc2nn[nH]n2)c(OC(C)C)c1Br` as the molecule, how does the inhibition at 10 µM read?
Its inhibition at 10 µM is under 25%.

With `CC(C)Oc1c(Br)csc1C(=O)Nc1nn[nH]n1` as the molecule, how does the inhibition at 10 µM read?
Its inhibition at 10 µM is 30%.

Which inhibition at 10 µM does the source give for `CC(C)Oc1c(C(=O)Nc2nn[nH]n2)sc(-c2ccccc2)c1Br` here?
Its inhibition at 10 µM is under 25%.

Which inhibition at 10 µM does the source give for `COc1ccc(C(=O)Nc2nn[nH]n2)c(OC(C)C)c1` here?
The inhibition at 10 µM was under 25%.

With `CC(C)Sc1c(C(=O)Nc2nn[nH]n2)oc(Br)c1Br` as the molecule, how does the inhibition at 10 µM read?
Its inhibition at 10 µM is under 25%.

For `COc1ccc(C(=O)Nc2nn[nH]n2)c(OC(C)C)c1I`, which inhibition at 10 µM is on record?
The inhibition at 10 µM was 51%.

Which inhibition at 10 µM does the source give for `Cc1sc(C(=O)Nc2nn[nH]n2)c(OC(C)C)c1C` here?
The inhibition at 10 µM was under 25%.

For `Cc1sc(C(=O)Nc2nn[nH]n2)c(OC(C)C)c1C(C)C`, which inhibition at 10 µM is on record?
Its inhibition at 10 µM is under 25%.

For `COc1c(C(=O)Nc2nn[nH]n2)sc(C)c1Br`, which inhibition at 10 µM is on record?
The inhibition at 10 µM was under 25%.

For `CCCc1c2oc(C(=O)O)cc(=O)c2cc2c(=O)cc(C(=O)O)n(CC)c12` [NEDOCROMIL], which inhibition at 10 µM is on record?
Its inhibition at 10 µM is under 25%.
